According to US11565094B2, “Delivery devices” (THE METHODIST HOSPITAL SYSTEM, priority 2017, dated 2023):

Assays:
[1] = design: species or system C57Bl6 mice; conditions: mouse, in vivo
Description: Utilizing the percutaneous trocar delivery approach, PEEK nano-channel implants loaded with Magnevist were inserted intratumorally into the upper thigh of C57Bl6 mice with induced melanoma. The implants were visualized on T1-weighted images as an area of hypointensity corresponding to the PEEK body and surrounded by a hyperintense halo of contrast agent (FIG. 7B). Implant location could also be identified on T2-weighted images that, in addition, highlighted tumor heterogeneity (FIG. 7A).
An unexpected outcome was the implant's loaded concentration being too high for visualization, as the relaxation time was faster than the scanner could detect. This is further evidenced by the sharp onset of observable enhancement a few mm from the implant's exterior. The narrow band of this observable enhancement, beginning 2-5 mm from the implant's exterior and approximately 1 mm thick, provides evidence of rapid clearance of the contrast agent from the tumor tissue. FIG. 7C serves as an idealized graphical representation of the relationship between the normalized concentration and the visible contrast zone.

[2] = VEGF 0.5 and 5 μg/mL in PLM, subcutaneous device
Description: The encapsulation systems were evaluated in nude mice (Nu/Nu, female, 8-10 week old), after receiving approval by the Institutional Animal Care and Use Committee of Houston Methodist Research Institute. Surface treated and sterilized devices, loaded with platelet-lysate matrix (PLM) enriched with VEGF at two different concentrations (0.5 and 5 μg/mL), were implanted subcutaneously in the mice dorsum (n=12 per group). At 1, 2, and 4 weeks post implantation, 4 mice per group were euthanized and the graft explanted for the histological assessment of vascularization and innervation. The implant and surrounding tissues were harvested and processed for histopathology evaluation of tissue response to the implanted device. CD31 antibody (Abcam, ab28364) and a pan-axonal antibody (Cambridge Bioscience, SMI-312R-100) were used to assess vascularization and innervation, respectively.
In vivo vascularization and innervation of oxygen treated devices after subcutaneous implantation in nude mice was then investigated. […] To stimulate neovascularization and to support the islet viability and function for a period of time after transplantation, devices loaded with biological gels with different VEGF concentrations was used. […] Tissue samples were taken from the side of the device closer to the skin, representing the subcutaneous environment.

Row | Molecule | distance from implant's exterior where observable enhancement begins [1] | thickness of band of observable enhancement [1] | number of vessels stained by CD31 versus VEGF concentration [2]
1 | CNC[C@H](O)[C@@H](O)[C@H](O)[C@H](O)CO.CNC[C@H](O)[C@@H](O)[C@H](O)[C@H](O)CO.O=C([O-])CN(CCN(CC(=O)[O-])CC(=O)O)CCN(CC(=O)[O-])CC(=O)O.[Gd+3] [Magnevist] | 2-5 mm | approximately 1 mm | 
2 | vascular endothelial growth factor [VEGF] |  |  | positive trend
